These results are taken from patent publication EP1333824B1, “TREATMENT OF SEXUAL DYSFUNCTION WITH BOMBESIN RECEPTOR ANTAGONISTS” (Warner-Lambert Company LLC, priority 2000, dated 2002).

In one assay the test system is Sprague Dawley male rats. Put plainly: Sexual behaviour of normal (sexually vigorous) male rats. Format: in vivo, rat. To be noted: Compound (1) 15mg/kg or Fluoxetine 20mg/kg i.p. 1h before tests, vs vehicle. As to the method:
Sprague Dawley male rats (Charles River, UK) were kept, 4 rats per cage, in a reversed lighting regime (12:12 hours, lights off at 5.00 h), with free access to food and water. The rats were pre-selected by being presented with a receptive female at 4 days intervals, i.e. every third day (having 2 clear days between presentations) until completing 6-7 days of baseline determination. The animals showing consistently vigorous behaviour (ejaculatory latencies <300s) were chosen for further experiments (n=24). Animals were randomised into three groups. All animals received all three treatments following a latin-square design. Treatments were administered once a week, with a baseline test in between treatments (4 days intervals between baseline and test day). […] All treatments were administered i.p. in a 1ml/kg volume, 1h before tests.
For all the sexual behaviour tests, the males were placed in an observation arena (50-60 cm diameter), starting 5 hours into the dark cycle and observed under red illumination. Three to 4 minutes after placing the male in the arena, a receptive female (ovariectomised, bearing a 7 mm Silastic implant of oestradiol benzoate) was introduced to the arena and the following parameters noted: Mount Latency: time (in seconds) taken between introduction of female and first mount. A maximum time of 15 minutes (900 seconds) was allowed, and the test terminated if no mounts were recorded within that time (Figure 11), Intromission Latency: time (in seconds) taken between introduction of female and first intromission (Figure 12), Number of Mounts: to reach ejaculation. When ejaculation was not reached, the number of mounts was not analyzed, Number of Intromissions: to reach ejaculation. When ejaculation was not reached, the number of intromissions was not analyzed (Figure 13 is number of mounts + intromissions), Ejaculation Latency: time (in seconds) taken from first intromission to ejaculation. A maximum time of 30 minutes (1800 seconds) was given, and the test terminated if ejaculation was not achieved in that time (Figure 14), and Refractory Period: time (in seconds) taken from ejaculation to the first mount of the next series of sexual activity. In those animals reaching ejaculation the test was terminated at the end of the refractory period, as indicated by the first mount of the next sexual cycle (Figure 15).
A one-way ANOVA followed by Dunnett's t test was used to compare treated vs vehicle groups each day of testing, for all the sexual behaviour parameters.

Assay [1] relates to Ovariectomised adult female Sprague Dawley rats. In words: Female rat sexual proceptivity test (time investigating male vs female stimulus). Format: in vivo. The settings on record: Example 1; i.p., 3 and 10mg/kg in 50% 2-hydroxypropyl-β-cyclodextrin, 1h before tests.

Take `COc1ccc(C2(CNC(=O)[C@](C)(Cc3c[nH]c4ccccc34)NC(=O)Nc3ccc([N+](=O)[O-])cc3)CCCCC2)nc1` [Compound (1), (S) 3-(1H-Indol-3-yl)-N-[1-(5-methoxy-pyridin-2-yl)-cyclohexyl-methyl]-2-methyl-2-[3-(4-nitro-phenyl)-ureido]-propionamide]: in the assay on Sprague Dawley male rats, the Ejaculation latency result is recorded as “no effect”, the Intromission latency entry was “no effect”, the Mount latency entry is given as “no effect” and the Refractory period result is “no effect”. For the same compound, the “number of mounts and intromissions required to achieve ejaculation” value in the assay with Sprague Dawley male rats is on record as “no effect”. Further, in assay [1], the “MED (increase in percentage of time spent investigating the male stimulus)” value was 10 mg/kg.
